Measured values published in patent US20260049088A1, “TRICYCLIC HETEROCYCLIC DERIVATIVES, COMPOSITIONS AND USES THEREOF” (Danatlas Pharmaceuticals Co., Ltd., priority 2023, published 2026).

Target: T1, hPARG (Homo sapiens, UniProt Q86W56)
T1 construct: made in house; host or cells: E. coli
Test: PARG enzymatic activity assay (HTRF)
Type: biochemical
Conditions: C-terminal His6-tag hPARG 65 pM, biotinylated-NAD ribosylated PARP1 substrate 8 nM
Description: HTRF assay was used to measure the ability of compounds to inhibit the activity of […] in vitro. C-terminal His6—tag PARG expressed in E. coli was purified and stored at −80° C. in aliquots. Assay measurements were performed with 1×buffer comprising 50 mM Tris pH 7.4, 0.1 mg/mL BSA, 3 mM EDTA, 0.4 mM EGTA, 1 mM DTT, 50 mM KCl and 0.01% Tween 20. Compounds dissolved in DMSO were plated into a 384-well assay plate (PerkinElmer, Catalog #: 6008280) in duplicate using a dispenser (Labcyte, Echo 665), and tested on a 10-point 4-fold serial dilution. Add 5 μL Enzyme mix [hPARG (C-terminal His6—tag, 4.2 μM), 65 pM final] to the test wells. The plates were covered and left to incubate for 60 minutes at RT before the addition of 5 μL substrate mix [biotinylated-NAD ribosylated PARP1 (6.1 μM), 8 nM final] to initiate reaction. After incubating 10 minutes at RT, add 2.5 μL Streptavidin-Eu cryptate (Cisbio, Catalog #: 610SAKLA) and 2.5 μL Mab anti 6HIS-XL665 (Cisbio, Catalog #: 61HISXLA) to the plate, and incubate for 60 minutes at RT. Read on a multimode plate reader (PerkinElmer, Envision 2015) in time-resolved fluorescence (TRF) mode, with excitation at 337 nm and emission at both 620 nm and 665 nm. Average HTRF signal of high control (Wells with 1% DMSO) was calculated and as Vehicle Control (VC). Average HTRF signal of low control (no Enzyme) was calculated and as Positive control (PC).
IC50 values were determined by fitting the data to the standard 4 parameters with Hill Slope using GraphPad Prism software.

T1 sequence (Q86W56 whole entry): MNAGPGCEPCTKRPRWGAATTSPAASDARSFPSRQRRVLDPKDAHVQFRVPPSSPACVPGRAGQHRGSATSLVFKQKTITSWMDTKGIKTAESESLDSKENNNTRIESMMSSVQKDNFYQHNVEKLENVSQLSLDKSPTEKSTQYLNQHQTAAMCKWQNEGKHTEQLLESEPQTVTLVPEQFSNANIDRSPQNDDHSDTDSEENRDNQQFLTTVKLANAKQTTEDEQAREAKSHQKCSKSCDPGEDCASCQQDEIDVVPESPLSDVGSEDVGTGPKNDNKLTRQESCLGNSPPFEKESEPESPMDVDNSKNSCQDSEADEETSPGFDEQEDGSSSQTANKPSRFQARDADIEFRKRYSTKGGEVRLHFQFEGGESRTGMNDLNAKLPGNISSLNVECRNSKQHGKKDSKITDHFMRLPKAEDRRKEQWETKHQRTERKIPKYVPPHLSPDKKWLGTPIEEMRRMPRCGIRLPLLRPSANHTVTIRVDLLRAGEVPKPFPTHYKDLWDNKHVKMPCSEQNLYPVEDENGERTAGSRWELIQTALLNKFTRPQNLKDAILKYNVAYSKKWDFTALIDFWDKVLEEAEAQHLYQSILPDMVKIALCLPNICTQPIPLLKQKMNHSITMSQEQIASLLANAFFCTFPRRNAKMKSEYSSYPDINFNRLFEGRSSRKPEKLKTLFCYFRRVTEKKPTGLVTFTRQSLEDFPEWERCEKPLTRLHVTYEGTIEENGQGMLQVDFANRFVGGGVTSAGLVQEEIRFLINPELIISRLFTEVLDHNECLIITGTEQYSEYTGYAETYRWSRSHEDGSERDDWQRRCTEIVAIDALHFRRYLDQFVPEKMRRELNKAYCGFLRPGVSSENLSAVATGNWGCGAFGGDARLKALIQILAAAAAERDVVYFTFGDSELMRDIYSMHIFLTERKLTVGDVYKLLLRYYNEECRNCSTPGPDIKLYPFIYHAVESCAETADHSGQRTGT

| Structure (SMILES) | IC50 |
| --- | --- |
| Cc1nc(C)n(CCN(C)c2ncnc3c2c2ccc(S(=O)(=O)NC4(C#N)CC4)cc2n3-c2nnc(C(F)F)s2)n1 [Example 71, N-(1-Cyanocyclopropyl)-9-(5-(difluoromethyl)-1,3,4-thiadiazol-2-yl)-4-((2-(3,5-dimethyl-1H-1,2,4-triazol-1-yl)ethyl)(methyl)amino)-9H-pyrimido[4,5-b]indole-7-sulfonamide] | > 1000 nM |
| N#CC1(NS(=O)(=O)c2ccc3c4c(OCCCN5CCOCC5)ncnc4n(-c4nnc(C(F)F)s4)c3c2)CC1 [Example 2, N-(1-Cyanocyclopropyl)-9-(5-(difluoromethyl)-1,3,4-thiadiazol-2-yl)-4-(3-morpholinopropoxy)-9H-pyrimido[4,5-b]indole-7-sulfonamide] | ≤ 100 nM |
| CN(Cc1ccccn1)c1ncnc2c1c1ccc(S(=O)(=O)NC3(C#N)CC3)cc1n2-c1nnc(C(F)F)s1 [Example 22, N-(1-Cyanocyclopropyl)-9-(5-(difluoromethyl)-1,3,4-thiadiazol-2-yl)-4-(methyl(pyridin-2-ylmethyl)amino)-9H-pyrimido[4,5-b]indole-7-sulfonamide] | 100 to 1000 nM |
| N#CC1(NS(=O)(=O)c2ccc3c4c(OCCN5CCCS5(=O)=O)ncnc4n(-c4nnc(C(F)F)s4)c3c2)CC1 [Example 91, N-(1-Cyanocyclopropyl)-9-(5-(difluoromethyl)-1,3,4-thiadiazol-2-yl)-4-(2-(1,1-dioxidoisothiazolidin-2-yl)ethoxy)-9H-pyrimido[4,5-b]indole-7-sulfonamide] | ≤ 100 nM |
| C[C@H]1CN(c2ncnc3c2c2ccc(S(=O)(=O)NC4(C#N)CC4)cc2n3-c2nnc(C(F)F)s2)C[C@H](C)N1 [Example 94, N-(1-Cyanocyclopropyl)-9-(5-(difluoromethyl)-1,3,4-thiadiazol-2-yl)-4-((3S,5S)-3,5-dimethylpiperazin-1-yl)-9H-pyrimido[4,5-b]indole-7-sulfonamide] | ≤ 100 nM |
| CN(CC1(C#N)CC1)c1ncnc2c1c1ccc(S(=O)(=O)NC3(C#N)CC3)cc1n2-c1nnc(C(F)F)s1 [Example 75, N-(1-Cyanocyclopropyl)-4-(((1-cyanocyclopropyl)methyl)(methyl)amino)-9-(5-(difluoromethyl)-1,3,4-thiadiazol-2-yl)-9H-pyrimido[4,5-b]indole-7-sulfonamide] | ≤ 100 nM |

Second part, the compound after the results:

| IC50 | Structure (SMILES) |
| --- | --- |
| ≤ 100 nM | CN(CCCN1CCOCC1)c1ncnc2c1c1ccc(S(=O)(=O)NC3(C#N)CC3)cc1n2-c1nnc(C(F)F)s1 [Example 17, N-(1-Cyanocyclopropyl)-9-(5-(difluoromethyl)-1,3,4-thiadiazol-2-yl)-4-(methyl(3-morpholinopropyl)amino)-9H-pyrimido[4,5-b]indole-7-sulfonamide] |
| ≤ 100 nM | CCc1cnc2n1CCN(c1ncnc3c1c1ccc(S(=O)(=O)NC4(C#N)CC4)cc1n3-c1nnc(C(F)F)s1)C2 [Example 54, N-(1-Cyanocyclopropyl)-9-(5-(difluoromethyl)-1,3,4-thiadiazol-2-yl)-4-(3-ethyl-5,6-dihydroimidazo[1,2-a]pyrazin-7(8H)-yl)-9H-pyrimido[4,5-b]indole-7-sulfonamide] |
| ≤ 100 nM | C[C@@H]1CCCN(c2ncnc3c2c2ccc(S(=O)(=O)NC4(C#N)CC4)cc2n3-c2nnc(C(F)F)s2)C1 [Example 81, (R)-N-(1-Cyanocyclopropyl)-9-(5-(difluoromethyl)-1,3,4-thiadiazol-2-yl)-4-(3-methylpiperidin-1-yl)-9H-pyrimido[4,5-b]indole-7-sulfonamide] |
| ≤ 100 nM | N#CC1(NS(=O)(=O)c2ccc3c4c(CCCN5CCOCC5)ncnc4n(-c4nnc(C(F)F)s4)c3c2)CC1 [Example 87, N-(1-Cyanocyclopropyl)-9-(5-(difluoromethyl)-1,3,4-thiadiazol-2-yl)-4-(3-morpholinopropyl)-9H-pyrimido[4,5-b]indole-7-sulfonamide] |
